Values of other authors, collected in US20200254013A1, “COMPOSITIONS COMPRISING ALPHA-POLYGLUTAMIC ACID-ZINC FOR TREATING CANCER” (XYLONIX IP HOLDINGS PTE. LTD., priority 2017, published 2020).

What was measured:
[1] = test system: folate receptor (FR), FR-α and FR-β
[2] = dietary administration 240 ppm, after 9-14 days
[3] = test system: murine thymocytes, murine splenic lymphocytes, human Ramos B, and human Jurkat T cells; details: nanomolar concentrations
[4] = test system: LNCaP, PC3, DU145 prostate cancer cell lines; details: 1-10 μM

Compound	affinity for FR-α versus FR-β [1]	neurological toxicity in rats [2]	apoptosis in leukocyte-originating cells [3]	ATP-depletion and necrosis in prostate cancer cell lines [4]
CN(CC1CNc2nc(N)[nH]c(=O)c2N1C)c1ccc(C(=O)N[C@@H](CCC(=O)O)C(=O)O)cc1 (stereo partly shown) [DMTHF, N^5, N^10-dimethyl tetrahydrofolate]	higher affinity for FR-α over FR-β			
zinc pyrithione		acute neurological toxicity	induced zinc-specific apoptosis	elicited ATP-depletion and, eventually, ERK and PKC-dependent necrosis
